Test: Storage stability of amorphous solifenacin succinate and premix compositions, purity and impurities by HPLC
Assay type: physicochemical
Settings: triple laminated package, nitrogen atmosphere
Method: The spray-dried product was packaged in a triple laminated package (two polyethylene layers covered with a layer of aluminium foil) containing a nitrogen atmosphere and samples were analyzed for impurity content at the time of packaging and after 7 days of storage at 0-5° C., using high-performance liquid chromatography (HPLC). The results are tabulated below:
6. The dried solid was packed in a double polyethylene bag with a silica desiccant pouch and the package was exposed to 0-5° C. and room temperature (RT) conditions for 25 days, then was analyzed by XRD and HPLC. The analytical data are given below:
The solid prepared was packaged in a double polyethylene bag with a silica desiccant and exposed to 0-5° C. and room temperature (RT) conditions for 27 days, and then samples were analyzed by XRD and HPLC. The data are given below:
The dried solid was packaged in a double polyethylene bag with a silica desiccant and exposed to 0-5° C. conditions for 16 days. A sample was then analyzed by XRD and HPLC, giving the following results:
The solid prepared was packaged in a double polyethylene bag and exposed at 0-5° C. and at room temperature (RT) for 20 days. Samples were then analyzed by XRD and by HPLC, giving the data below:
The solid products of Examples 6A and 6B, similarly packaged and stored under 0-5° C. and RT conditions for about 7 months, were analyzed and the data are given below: […]

- HSI (highest single impurity) (7th day of storage at 0-5° C.): 0.25 % of drug content
- HSI (highest single impurity) (initial, at the time of packaging): 0.03 % of drug content
SMILES: O=C(O[C@H]1CN2CCC1CC2)N1CCc2ccccc2[C@@H]1c1ccccc1 [Example 2, Amorphous Solifenacin Succinate]

From US20100137358A1, “SOLIFENACIN COMPOSITIONS” (DR. REDDY'S LABORATORIES LTD., priority 1996, published 2010)
